From ChEMBL document CHEMBL1124601, “Bifunctional antitumor compounds: synthesis and characterization of a Au(III)-streptonigrin complex with thiol-modulating properties” (J Med Chem, 1989)
Values after ≈ are worked out from the molar mass of the structure shown.

What was measured:
[1] = system: P388; assay: In vitro concentration to inhibit the growth of P-388 leukemia cells; format: functional, cell-based; conditions: Mus musculus
[2] = The dissociation constant of the free compound in 1: 1 dioxane-water mixture.; format: ADME
[3] = The dissociation constant at pH 3 using potentiometric titration in 100 uM of compound in 0.15 M KCl at 25 degrees Centigrade; format: ADME; conditions: 0.15 M KCl solution
[4] = system: P388; assay: Compound concentration was evaluated in vitro to inhibit the growth of P-388 leukemia cells; format: functional; conditions: Mus musculus, read-out: ID50 (the source's name)
[5] = The dissociation constant at pH 8 using potentiometric titration in 100 uM of compound in 0.15 M KCl at 25 degree Centigrade; format: ADME; conditions: 0.15 M KCl solution

| Molecule | ID50 [1] [µg/mL] | pKa [2] | pKa at 100 µM [3] | IC50 [4] [µg/mL] | pKa at 100 µM [5] |
| --- | --- | --- | --- | --- | --- |
| 5-Amino-6-(7-amino-6-methoxy-5,8-dioxo-5,8-dihydro-quinolin-2-yl)-4-(2-hydroxy-3,4-dimethoxy-phenyl)-3-methyl-pyridine-2-carboxylic acid; compound with Gold | 0.05 | – | – | – | – |
| COC1=C(N)C(=O)c2nc(-c3nc(C(=O)O)c(C)c(-c4ccc(OC)c(OC)c4O)c3N)ccc2C1=O [STREPTONIGRIN] | – | 6.5 | 4.7 | 0.05 (≈ 0.0987 µM) | 6.6 |
